The test concerns Candida albicans. Briefly: Oral and parenteral in vivo efficacy in mice experimentally infected with Candida albicans (survival time). Details: species or system Mäusen (Stamm HOE: NMRKF; SPF 71). The settings on record: for d̄ Tage: mean survival time of 5 mice; for Überlebenszeit in % (Standardpräp.= 100%): relative to Ketoconazol = 100%. On the procedure: Zur Feststellung der oralen und parenteralen Wirksamkeit wurden Gruppen von je 5 18-20 g schweren Mäusen (Stamm HOE: NMRKF; SPF 71) mit 2 . 10^6 Keimen/Tier infiziert.
Die Behandlung der Tiere erfolgte oral bzw. subcutan in 8 gleichen Einzeldosen zu je 30 mg/kg bzw. 10 mg/kg Körpergewicht (-24/-18/-2h/+2/24/30/48/54h).
Neben der mit den erfindungsgemäßen Substanzen I behandelten Gruppe von 5 Tieren wurde zum Vergleich eine Gruppe von ebenfalls 5 Tieren mit der Referenzsubstanz Ketoconazol behandelt. Eine kontrollgruppe von 10 Tieren blieb nach der Infektion unbehandelt.

Regarding `OC(Cn1cncn1)(c1ccc(Cl)cc1Cl)C1CC1c1ccc(Cl)cc1` (single isomer, unassigned) [29 a], the “d̄ Tage” value runs as follows: (Oral 8x10 mg/kg) 6,8 Tage; (Oral 8x30 mg/kg) 9,8 Tage; (Subcutan 8x10 mg/kg) 7,2 Tage; (Subcutan 8x30 mg/kg) 11,4 Tage. For the same compound, the “Überlebenszeit in % (Standardpräp.= 100%)” value (shortened to “Überlebenszeit in %”) is, setting by setting: (Oral 8x10 mg/kg) 121,4%; (Oral 8x30 mg/kg) 122,5%; (Subcutan 8x10 mg/kg) 112,5%; (Subcutan 8x30 mg/kg) 142,5%.
`OC(Cn1cncn1)(c1ccc(F)cc1)C1CC1c1ccc(Cl)cc1Cl` (single isomer, unassigned) [27 b]: the “d̄ Tage” value was 9,2 Tage (Oral 8x10 mg/kg), 11,6 Tage (Oral 8x30 mg/kg), 10,4 Tage (Subcutan 8x10 mg/kg) and 12,6 Tage (Subcutan 8x30 mg/kg). Also, the “Überlebenszeit in %” value runs as follows: (Oral 8x10 mg/kg) 164,3%; (Oral 8x30 mg/kg) 145,0%; (Subcutan 8x10 mg/kg) 162,5%; (Subcutan 8x30 mg/kg) 157,5%.
As to `CC(=O)N1CCN(c2ccc(OCC3COC(Cn4ccnc4)(c4ccc(Cl)cc4Cl)O3)cc2)CC1` (centres unmarked) [Ketoconazol, reference compound], the “d̄ Tage” value (Oral 8x10 mg/kg) was 5,6 Tage, the “d̄ Tage” value (Oral 8x30 mg/kg) is reported as 8,0 Tage, the “d̄ Tage” value (Subcutan 8x10 mg/kg) is recorded as 6,4 Tage and the “d̄ Tage” value (Subcutan 8x30 mg/kg) is recorded as 8,0 Tage. Further, the “Überlebenszeit in %” value by setting is: (Oral 8x10 mg/kg) 100,0%; (Oral 8x30 mg/kg) 100,0%; (Subcutan 8x10 mg/kg) 100,0%; (Subcutan 8x30 mg/kg) 100,0%.
On to `OC(Cn1cncn1)(c1ccc(Cl)cc1)C1CC1c1ccc(Cl)cc1` (single isomer, unassigned) [34 b], for which the “d̄ Tage” value is reported as 11,6 Tage (Oral 8x10 mg/kg), 13,0 Tage (Oral 8x30 mg/kg), 11,0 Tage (Subcutan 8x10 mg/kg) and 8,0 Tage (Subcutan 8x30 mg/kg). The “Überlebenszeit in %” value was 207,1% (Oral 8x10 mg/kg), 162,5% (Oral 8x30 mg/kg), 171,9% (Subcutan 8x10 mg/kg) and 100,0% (Subcutan 8x30 mg/kg).

The values above are taken from patent EP0212605A2, “Azolyl-cyclopropyl-ethanol derivatives, processes for their preparation and their use” (HOECHST AKTIENGESELLSCHAFT, priority 1985, dated 1987).
